Results published in US4476299A, “Cyclic polyamino containing compounds having therapeutic effect and the preparation thereof” (priority 1981, dated 1984).
Read-outs that look alike come from different tables or passages of the source.

System: P-388 cells
Test: Antineoplastic action against implanted P-388 tumor, CDF1 mice, i.p.-i.p. (T/C %)
Type: in vivo
Conditions: Mus musculus, read-out: T/C %, (Treatment/Control %)
Procedure: In this animal test, the antineoplastic action against the implanted tumor was examined, in lower animals in vivo, in repsect to the compounds according to the present invention, by using CDF1 mice.
To the peritoneal cavity of each group of mice consisting of six CDF1 mice per group, 10^6 /0.1 ml of P-388 cells or 10^5 /0.1 ml of L-1210 cells were implanted. […] While to the control groups of CDF1 mice, P-388 and L-1210 cells were implanted in the same manner and they were bred without administration of the compounds. […]

In the case of `CCOc1ccc2cc1Oc1ccc(cc1)CC1C(=O)N(C)C(C2)C(=O)NC(C)C(=O)NC(C)C(=O)N(C)C(Cc2ccc(OC)cc2)C(=O)NC(C)C(=O)N1C` (stereo not shown) [Ex. 3], the response vs control in vivo at 0.05 mg/kg (P388, ip) is reported as 137%, the response vs control in vivo at 0.5 mg/kg (P388, ip) is reported as 165% and the response vs control in vivo at 2 mg/kg (P388, ip) is reported as 162%.
Molecule `COc1ccc(CC2C(=O)NC(C)C(=O)N(C)C3Cc4ccc(cc4)Oc4cc(ccc4OC(C)C)CC(C(=O)NC(C)C(=O)NC(C)C(=O)N2C)N(C)C3=O)cc1` (stereo not shown) [Ex. 5] has a response vs control in vivo at 0.05 mg/kg (P388, ip) of 142%, a response vs control in vivo at 0.5 mg/kg (P388, ip) of 175% and a response vs control in vivo at 2 mg/kg (P388, ip) of 105%.
Work on `CCCCCOc1ccc2cc1Oc1ccc(cc1)CC1C(=O)N(C)C(C2)C(=O)NC(C)C(=O)NC(C)C(=O)N(C)C(Cc2ccc(OC)cc2)C(=O)NC(C)C(=O)N1C` (stereo not shown) [Ex. 7] yielded a response vs control in vivo at 0.05 mg/kg (P388, ip) of 122%, a response vs control in vivo at 0.5 mg/kg (P388, ip) of 143% and a response vs control in vivo at 2 mg/kg (P388, ip) of 165%.
For `CCCCCCCOc1ccc2cc1Oc1ccc(cc1)CC1C(=O)N(C)C(C2)C(=O)NC(C)C(=O)NC(C)C(=O)N(C)C(Cc2ccc(OC)cc2)C(=O)NC(C)C(=O)N1C` (stereo not shown) [Ex. 8], the response vs control in vivo at 0.05 mg/kg (P388, ip) was 116%, the response vs control in vivo at 0.5 mg/kg (P388, ip) was 145% and the response vs control in vivo at 2 mg/kg (P388, ip) was 150%. The response vs control in vivo at 4 mg/kg (P388, ip) was 164%.
With `CCCCCCCCOc1ccc2cc1Oc1ccc(cc1)CC1C(=O)N(C)C(C2)C(=O)NC(C)C(=O)NC(C)C(=O)N(C)C(Cc2ccc(OC)cc2)C(=O)NC(C)C(=O)N1C` (stereo not shown) [Ex. 9] the response vs control in vivo at 0.05 mg/kg (P388, ip) was 136%, the response vs control in vivo at 0.5 mg/kg (P388, ip) was 147% and the response vs control in vivo at 2 mg/kg (P388, ip) was 163%. For the same molecule, the response vs control in vivo at 4 mg/kg (P388, ip) was 152%.
Molecule `CCCCCCCCCOc1ccc2cc1Oc1ccc(cc1)CC1C(=O)N(C)C(C2)C(=O)NC(C)C(=O)NC(C)C(=O)N(C)C(Cc2ccc(OC)cc2)C(=O)NC(C)C(=O)N1C` (stereo not shown) [Ex. 10] has a response vs control in vivo at 0.05 mg/kg (ip, Table 6, P388, dose 0.05 mg/kg, i.p.) of 112%, a response vs control in vivo at 0.5 mg/kg (ip, Table 6, P388, dose 0.5 mg/kg, i.p.) of 142% and a response vs control in vivo at 2 mg/kg (ip, Table 6, P388, dose 2 mg/kg, i.p.) of 150%. The response vs control in vivo at 4 mg/kg (ip, Table 6, P388, dose 4 mg/kg, i.p.) was 155%.
For `COc1ccc(CC2C(=O)NC(C)C(=O)N(C)C3Cc4ccc(cc4)Oc4cc(ccc4OC4CCCCC4)CC(C(=O)NC(C)C(=O)NC(C)C(=O)N2C)N(C)C3=O)cc1` (stereo not shown) [Ex. 16], the response vs control in vivo at 0.05 mg/kg (P388, ip) was 126%, the response vs control in vivo at 0.5 mg/kg (P388, ip) was 162% and the response vs control in vivo at 2 mg/kg (P388, ip) was 164%.
In the case of `CCOC(=O)CCCOc1ccc2cc1Oc1ccc(cc1)CC1C(=O)N(C)C(C2)C(=O)NC(C)C(=O)NC(C)C(=O)N(C)C(Cc2ccc(OC)cc2)C(=O)NC(C)C(=O)N1C` (stereo not shown) [Ex. 19(2), ethoxycarbonylpropylether (2) of TPC-A], the response vs control in vivo at 0.05 mg/kg (P388, ip) is reported as 114%, the response vs control in vivo at 0.5 mg/kg (P388, ip) is reported as 140% and the response vs control in vivo at 2 mg/kg (P388, ip) is reported as 142%. It also gave a response vs control in vivo at 4 mg/kg (P388, ip) of 153%.
Molecule `COc1ccc(CC2C(=O)NC(C)C(=O)N(C)C3Cc4ccc(cc4)Oc4cc(ccc4OC4CCCCO4)CC(C(=O)NC(C)C(=O)NC(C)C(=O)N2C)N(C)C3=O)cc1` (stereo not shown) [Ex. 20, tetrahydropyranylether of TPC-A] has a response vs control in vivo at 0.05 mg/kg (P388, ip) of 138%, a response vs control in vivo at 0.5 mg/kg (P388, ip) of 164% and a response vs control in vivo at 2 mg/kg (P388, ip) of 121%.
`CCC(=O)Oc1ccc2cc1Oc1ccc(cc1)CC1C(=O)N(C)C(C2)C(=O)NC(C)C(=O)NC(C)C(=O)N(C)C(Cc2ccc(OC)cc2)C(=O)NC(C)C(=O)N1C` (stereo not shown) [Ex. 23] showed a response vs control in vivo at 0.05 mg/kg (P388, ip) of 129%, a response vs control in vivo at 0.5 mg/kg (P388, ip) of 145% and a response vs control in vivo at 2 mg/kg (P388, ip) of 164%. It also gave a response vs control in vivo at 10 mg/kg (P388, ip) of 175%.
In the case of `CCCC(=O)Oc1ccc2cc1Oc1ccc(cc1)CC1C(=O)N(C)C(C2)C(=O)NC(C)C(=O)NC(C)C(=O)N(C)C(Cc2ccc(OC)cc2)C(=O)NC(C)C(=O)N1C` (stereo not shown) [Ex. 24], the response vs control in vivo at 0.05 mg/kg (P388, ip) is reported as 125%, the response vs control in vivo at 0.5 mg/kg (P388, ip) is reported as 144% and the response vs control in vivo at 2 mg/kg (P388, ip) is reported as 156%. The response vs control in vivo at 10 mg/kg (P388, ip) was 170%.
In the case of `COc1ccc(CC2C(=O)NC(C)C(=O)N(C)C3Cc4ccc(cc4)Oc4cc(ccc4OC(=O)C(C)C)CC(C(=O)NC(C)C(=O)NC(C)C(=O)N2C)N(C)C3=O)cc1` (stereo not shown) [Ex. 25], the response vs control in vivo at 0.05 mg/kg (P388, ip) is reported as 124%, the response vs control in vivo at 0.5 mg/kg (P388, ip) is reported as 151% and the response vs control in vivo at 2 mg/kg (P388, ip) is reported as 156%. It also gave a response vs control in vivo at 10 mg/kg (P388, ip) of 184%.
